We go through one compound from patent publication US8784898B2, “Methods of wound care and treatment” (Revalesio Corporation, priority 2006, dated 2014).

Each structure is given as a SMILES string.

This assay deals with Methicillin-Resistant Staphylococcus Aureus (MRSA). Briefly: MRSA bacteriocidal effects in combination with oxacillin. In kind it is cell-based. Details: concentration or dose not given beside the values.

For `Cc1onc(-c2ccccc2)c1C(=O)N[C@@H]1C(=O)N2[C@@H]1SC(C)(C)[C@@H]2C(=O)O` [Drug, oxacillin], the “Percentage of plates with no growth” value reads like this: (0 min) 16.67%; (30 min) 0.00%; (120 min) 0.00%; (240 min) 0.00%; (480 min) 0.00%; (1080 min) 0.00%. For the same compound, the “Percentage of plates with no growth” value (1440 min) is recorded as 0.00%.
